Experimental data: article PMC4972714 (Bioorganic & medicinal chemistry, 2016)

Legend:
[1] = target: HIV-1 RRE IIB RNA; conditions: native Rev protein with RRE; ref [26], [58]; cited from earlier work
[2] = test system: HIV-1 NL4-3 in U87-CD4/CXCR4 cells; assay: Viral replication assay, p24 read-out; assay type: cell-based; conditions: 10 µM, infection over several days, NL4-3 in U87-CD4/CXCR4 cells (Fig. 1A)
[3] = test system: HIV-1 RRE IIB RNA; assay: Dot blot assay, binding to RRE IIB RNA; conditions: dot blot Kd relative to BPBA3

Compound	HIV-1 replication screening, p24 expression [2]	other results
Rev protein: native HIV-1 Rev protein that binds RRE	–	dissociation constant with RRE [1]: low nanomolar range
Cc1cn([C@H]2C[C@H](N=[N+]=[N-])[C@@H](CO)O2)c(=O)[nH]c1=O [AZT, azidothymidine]	completely abolished p24 expression	–
Nc1ccn([C@@H]2CS[C@H](CO)O2)c(=O)n1 [3TC, 2′,3′-dideoxy-3′-thiacytidine]	completely abolished p24 expression	–
FBPAYFBPAFBPAYFBPA*NKSY [LBPBA3B]	–	loss in binding affinity towards RRE IIB versus BPBA3 [3]: 3 fold
Raltegravir	completely abolished p24 expression	–
Elvitegravir	completely abolished p24 expression	–
FBPAYFBPA*NKSY [LBPBA3A]	–	loss in binding affinity towards RRE IIB versus BPBA3 [3]: 2 fold
